The target in experiment [1] is T1, Recombinant STAT3 protein (STAT3(G127-I722)) (Homo sapiens, UniProt P40763).
T1 construct: STAT3(G127-I722)
The experiment is described as follows: STAT3 Fluorescence Polarization (FP) Assay. The conditions noted are these: STAT3(G127-I722) 25 nM, probe 5-FAM-GpYLPQTV-NH2 2 nM, 45-minute incubation. The experiment is classed as binding. In outline: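 Serially diluted compounds (1% DMSO) were mixed with 2 nM fluorescent phosphotyrosine peptide and 25 nM STAT3 construct G127-I722, pH 7.4, incubated 45 min at room temperature. IC50 values from fitted polarization curves are reported as categories A (≤100 nM), B, C, D (>10 μM).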
A general note: Fluorescence polarisation rises when a labelled molecule tumbles more slowly, as on binding a larger partner.

Experiment [2] has as its target T2, Recombinant STAT6 protein (STAT6(W123-T658)) (Homo sapiens, UniProt P42226).
T2 construct: STAT6(W123-T658)
T2 sequence (P42226 123-658): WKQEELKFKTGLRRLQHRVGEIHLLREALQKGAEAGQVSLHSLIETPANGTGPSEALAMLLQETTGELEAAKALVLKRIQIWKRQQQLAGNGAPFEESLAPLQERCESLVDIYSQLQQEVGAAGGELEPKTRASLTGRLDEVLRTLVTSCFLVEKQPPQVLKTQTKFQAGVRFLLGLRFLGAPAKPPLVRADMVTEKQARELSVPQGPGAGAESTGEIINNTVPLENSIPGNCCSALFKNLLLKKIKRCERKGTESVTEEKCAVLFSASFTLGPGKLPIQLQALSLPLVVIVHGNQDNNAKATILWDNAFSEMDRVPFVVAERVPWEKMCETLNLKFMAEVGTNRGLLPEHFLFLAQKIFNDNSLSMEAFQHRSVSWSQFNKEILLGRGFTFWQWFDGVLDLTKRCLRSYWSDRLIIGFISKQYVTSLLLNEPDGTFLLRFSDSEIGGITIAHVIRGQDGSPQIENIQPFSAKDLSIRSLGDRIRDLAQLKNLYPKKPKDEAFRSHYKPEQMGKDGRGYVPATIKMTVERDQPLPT
The experiment can be described thus: STAT6 Fluorescence Polarization (FP) Assay. The experiment is classed as binding. The conditions noted are these: STAT6(W123-T658) 250 nM, probe 5-FAM-ApYKPFQDLI-NH2 2 nM, 45-minute incubation. In outline: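 Competitive displacement of a fluorescent phosphotyrosine peptide (2 nM) from recombinant STAT6 W123-T658 (250 nM), 45 min at room temperature in 10 mM HEPES pH 7.4, 50 mM NaCl, 2 mM DTT. mP fitted against log compound for IC50, grouped A (≤300 nM) to D (>30 μM).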

T1 sequence (P40763 127-722, species assumed): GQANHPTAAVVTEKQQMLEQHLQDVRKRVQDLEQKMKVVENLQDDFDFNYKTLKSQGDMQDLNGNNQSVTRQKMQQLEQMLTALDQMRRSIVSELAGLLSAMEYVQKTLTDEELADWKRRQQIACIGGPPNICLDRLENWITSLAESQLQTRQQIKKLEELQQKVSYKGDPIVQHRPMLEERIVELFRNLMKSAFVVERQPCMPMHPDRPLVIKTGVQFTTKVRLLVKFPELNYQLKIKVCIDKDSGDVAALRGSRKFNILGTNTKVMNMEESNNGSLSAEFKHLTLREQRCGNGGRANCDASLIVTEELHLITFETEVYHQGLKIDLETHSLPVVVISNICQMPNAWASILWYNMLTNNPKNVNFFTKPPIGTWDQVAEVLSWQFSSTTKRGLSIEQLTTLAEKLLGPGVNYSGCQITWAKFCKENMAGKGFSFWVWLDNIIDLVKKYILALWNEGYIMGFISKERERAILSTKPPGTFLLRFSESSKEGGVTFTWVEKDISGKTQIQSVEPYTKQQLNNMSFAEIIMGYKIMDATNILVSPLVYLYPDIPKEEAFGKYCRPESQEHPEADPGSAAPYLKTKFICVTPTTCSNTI

As for `Cc1cc(C2CN(C(=O)[C@@H]3CC[C@@H]4C[C@H]5C[C@H]5C[C@H](NC(=O)c5cc6cc(C(F)P(=O)(O)O)ccc6s5)C(=O)N43)C2)on1` (stereo partly drawn) [Example 328, (fluoro(2-(((3S,6S,7aS,8aR,9aR)-3-(3-(3-methylisoxazol-5-yl)azetidine-1-carbonyl)-5-oxodecahydro-1H-cyclopropa[d]pyrrolo[1,2-a]azocin-6-yl)carbamoyl)benzo[b]thiophen-5-yl)methyl)phosphonic acid], the figures for the half-inhibitory concentration (IC50) in experiment [1] and in experiment [2] were 100 to 1000 nM and 3 to 30 µM, respectively.
The corresponding values for `NC(=O)N1C[C@H](NC(=O)[C@@H]2CC[C@@H]3C[C@H]4C[C@H]4C[C@H](NC(=O)c4cc5cc(C(F)P(=O)(O)O)ccc5s4)C(=O)N32)[C@@H](F)C1` (stereo partly drawn) [Example 330, ((2-(((3S,6S,7aS,8aR,9aR)-3-(((3S,4S)-1-carbamoyl-4-fluoropyrrolidin-3-yl)carbamoyl)-5-oxodecahydro-1H-cyclopropa[d]pyrrolo[1,2-a]azocin-6-yl)carbamoyl)benzo[b]thiophen-5-yl)fluoromethyl)phosphonic acid] are less than 100 nM and 0.3 to 3 µM.
As to `Cn1cnnc1C1CN(C(=O)[C@@H]2CC[C@@H]3C[C@@H]4C[C@@H]4C[C@H](NC(=O)c4cc5cc(C(F)P(=O)(O)O)ccc5s4)C(=O)N32)C1` (stereo partly drawn) [Example 331, (fluoro(2-(((3S,6S,7aR,8aS,9aR)-3-(3-(4-methyl-4H-1,2,4-triazol-3-yl)azetidine-1-carbonyl)-5-oxodecahydro-1H-cyclopropa[d]pyrrolo[1,2-a]azocin-6-yl)carbamoyl)benzo[b]thiophen-5-yl)methyl)phosphonic acid], the 50% inhibitory concentration (IC50) (as a rule, the concentration that gives 50% inhibition) is less than 100 nM in experiment [1] and 3 to 30 µM in experiment [2].
Take `CS(=O)(=O)CC1CN(C(=O)[C@@H]2CC[C@@H]3C[C@H]4C[C@H]4C[C@H](NC(=O)c4cc5cc(C(F)P(=O)(O)O)ccc5s4)C(=O)N32)C1` (stereo partly drawn) [Example 333, (fluoro(2-(((3S,6S,7aS,8aR,9aR)-3-(3-((methylsulfonyl)methyl)azetidine-1-carbonyl)-5-oxodecahydro-1H-cyclopropa[d]pyrrolo[1,2-a]azocin-6-yl)carbamoyl)benzo[b]thiophen-5-yl)methyl)phosphonic acid]: the IC50 in experiment [1] is less than 100 nM; in experiment [2], 3 to 30 µM.
The corresponding values for `O=C(N[C@H]1C[C@@H]2C[C@@H]2C[C@H]2CC[C@@H](C(=O)N3CC(Oc4cnccn4)C3)N2C1=O)c1cc2cc(CP(=O)(O)O)ccc2s1` [Example 334, ((2-(((3S,6S,7aS,8aR,9aR)-5-oxo-3-(3-(pyrazin-2-yloxy)azetidine-1-carbonyl)decahydro-1H-cyclopropa[d]pyrrolo[1,2-a]azocin-6-yl)carbamoyl)benzo[b]thiophen-5-yl)methyl)phosphonic acid] are 1000 to 10000 nM and greater than 30 µM.
The like results for `Cn1cc(OC2CN(C(=O)[C@@H]3CC[C@@H]4C[C@H]5C[C@H]5C[C@H](NC(=O)c5cc6cc(CP(=O)(O)O)ccc6s5)C(=O)N43)C2)cn1` [Example 335, ((2-(((3S,6S,7aS,8aR,9aR)-3-(3-((1-methyl-1H-pyrazol-4-yl)oxy)azetidine-1-carbonyl)-5-oxodecahydro-1H-cyclopropa[d]pyrrolo[1,2-a]azocin-6-yl)carbamoyl)benzo[b]thiophen-5-yl)methyl)phosphonic acid] were, in that order, 1000 to 10000 nM and greater than 30 µM.
The corresponding values for `COc1cc(C2CN(C(=O)[C@@H]3CC[C@@H]4C[C@H]5C[C@H]5C[C@H](NC(=O)c5cc6cc(C(F)P(=O)(O)O)ccc6s5)C(=O)N43)C2)on1` (stereo partly drawn) [Example 336, (fluoro(2-(((3S,6S,7aS,8aR,9aR)-3-(3-(3-methoxyisoxazol-5-yl)azetidine-1-carbonyl)-5-oxodecahydro-1H-cyclopropa[d]pyrrolo[1,2-a]azocin-6-yl)carbamoyl)benzo[b]thiophen-5-yl)methyl)phosphonic acid] are 100 to 1000 nM and 3 to 30 µM.
Take `Cc1cc(C2CN(C(=O)[C@@H]3CC[C@@H]4C[C@H]5C[C@H]5C[C@H](NC(=O)c5cc6cc(C(F)P(=O)(O)O)ccc6s5)C(=O)N43)C2)no1` (stereo partly drawn) [Example 337, (fluoro(2-(((3S,6S,7aS,8aR,9aR)-3-(3-(5-methylisoxazol-3-yl)azetidine-1-carbonyl)-5-oxodecahydro-1H-cyclopropa[d]pyrrolo[1,2-a]azocin-6-yl)carbamoyl)benzo[b]thiophen-5-yl)methyl)phosphonic acid]: the figures for the half-maximal inhibitory concentration (IC50) in experiment [1] and in experiment [2] were less than 100 nM and 3 to 30 µM, respectively.
The like results for `O=C(N[C@H]1C[C@@H]2C[C@@H]2C[C@H]2CC[C@@H](C(=O)N[C@H]3CN(c4ncc[nH]4)C[C@@H]3F)N2C1=O)c1cc2cc(C(F)P(=O)(O)O)ccc2s1` (stereo partly drawn) [Example 339, (fluoro(2-(((3S,6S,7aS,8aR,9aR)-3-(((3S,4S)-4-fluoro-1-(1H-imidazol-2-yl)pyrrolidin-3-yl)carbamoyl)-5-oxodecahydro-1H-cyclopropa[d]pyrrolo[1,2-a]azocin-6-yl)carbamoyl)benzo[b]thiophen-5-yl)methyl)phosphonic acid] were, in that order, less than 100 nM and 0.3 to 3 µM.
For `NC(=O)N1C[C@H](NC(=O)[C@@H]2CC[C@@H]3C[C@H]4C[C@H]4C[C@H](NC(=O)c4cc5cc(C(F)P(=O)(O)O)ccc5s4)C(=O)N32)C(F)(F)C1` (stereo partly drawn) [Example 340, ((2-(((3S,6S,7aS,8aR,9aR)-3-(((S)-1-carbamoyl-4,4-difluoropyrrolidin-3-yl)carbamoyl)-5-oxodecahydro-1H-cyclopropa[d]pyrrolo[1,2-a]azocin-6-yl)carbamoyl)benzo[b]thiophen-5-yl)fluoromethyl)phosphonic acid], the IC50 in experiment [1] is less than 100 nM; in experiment [2], 3 to 30 µM.
The corresponding values for `CS(=N)(=O)CC1CN(C(=O)[C@@H]2CC[C@@H]3C[C@H]4C[C@H]4C[C@H](NC(=O)c4cc5cc(C(F)P(=O)(O)O)ccc5s4)C(=O)N32)C1` (stereo partly drawn) [Example 341, (fluoro(2-(((3S,6S,7aS,8aR,9aR)-3-(3-((S-methylsulfonimidoyl)methyl)azetidine-1-carbonyl)-5-oxodecahydro-1H-cyclopropa[d]pyrrolo[1,2-a]azocin-6-yl)carbamoyl)benzo[b]thiophen-5-yl)methyl)phosphonic acid] are less than 100 nM and 3 to 30 µM.
`O=C(N[C@H]1C[C@@H]2C[C@@H]2C[C@H]2CC[C@@H](C(=O)N3CC(Oc4ncccn4)C3)N2C1=O)c1cc2cc(CP(=O)(O)O)ccc2s1` [Example 342, ((2-(((3S,6S,7aS,8aR,9aR)-5-oxo-3-(3-(pyrimidin-2-yloxy)azetidine-1-carbonyl)decahydro-1H-cyclopropa[d]pyrrolo[1,2-a]azocin-6-yl)carbamoyl)benzo[b]thiophen-5-yl)methyl)phosphonic acid]: the IC50 in experiment [1] was 1000 to 10000 nM; in experiment [2] it was greater than 30 µM.
For `CCc1ccncc1C1CN(C(=O)[C@@H]2CC[C@@H]3C[C@@H]4C[C@@H]4C[C@H](NC(=O)c4cc5cc(CP(=O)(O)O)ccc5s4)C(=O)N32)C1` [Example 343, ((2-(((3S,6S,7aR,8aS,9aR)-3-(3-(4-ethylpyridin-3-yl)azetidine-1-carbonyl)-5-oxodecahydro-1H-cyclopropa[d]pyrrolo[1,2-a]azocin-6-yl)carbamoyl)benzo[b]thiophen-5-yl)methyl)phosphonic acid], the IC50 is less than 100 nM in experiment [1] and greater than 30 µM in experiment [2].
As to `O=C(N[C@H]1C[C@@H]2C[C@@H]2C[C@H]2CC[C@@H](C(=O)N[C@H]3CN(c4nc[nH]n4)C[C@@H]3F)N2C1=O)c1cc2cc(C(F)P(=O)(O)O)ccc2s1` (stereo partly drawn) [Example 347, (fluoro(2-(((3S,6S,7aS,8aR,9aR)-3-(((3S,4S)-4-fluoro-1-(1H-1,2,4-triazol-3-yl)pyrrolidin-3-yl)carbamoyl)-5-oxodecahydro-1H-cyclopropa[d]pyrrolo[1,2-a]azocin-6-yl)carbamoyl)benzo[b]thiophen-5-yl)methyl)phosphonic acid], the IC50 in experiment [1] was 100 to 1000 nM; in experiment [2] it was 3 to 30 µM.
The corresponding values for `Cc1cn(C)c(N2C[C@H](NC(=O)[C@@H]3CC[C@@H]4C[C@H]5C[C@H]5C[C@H](NC(=O)c5cc6cc(C(F)P(=O)(O)O)ccc6s5)C(=O)N43)[C@@H](F)C2)n1` (stereo partly drawn) [Example 348, ((2-(((3S,6S,7aS,8aR,9aR)-3-(((3S,4S)-1-(1,4-dimethyl-1H-imidazol-2-yl)-4-fluoropyrrolidin-3-yl)carbamoyl)-5-oxodecahydro-1H-cyclopropa[d]pyrrolo[1,2-a]azocin-6-yl)carbamoyl)benzo[b]thiophen-5-yl)fluoromethyl)phosphonic acid] are less than 100 nM and 3 to 30 µM.

Values taken from US20250215030A1, “STAT MODULATORS AND USES THEREOF” (Recludix Pharma, Inc., priority 2022, published 2025).
